# Measurements taken from paper PMC4708007 (Bioscience Reports, 2015).
# Target: T1, FtRelA (Francisella tularensis, UniProt Q5NEV0)
# T1 construct: gene relA
# Test: biochemical
# T1 sequence (Q5NEV0 1-647 limits assumed): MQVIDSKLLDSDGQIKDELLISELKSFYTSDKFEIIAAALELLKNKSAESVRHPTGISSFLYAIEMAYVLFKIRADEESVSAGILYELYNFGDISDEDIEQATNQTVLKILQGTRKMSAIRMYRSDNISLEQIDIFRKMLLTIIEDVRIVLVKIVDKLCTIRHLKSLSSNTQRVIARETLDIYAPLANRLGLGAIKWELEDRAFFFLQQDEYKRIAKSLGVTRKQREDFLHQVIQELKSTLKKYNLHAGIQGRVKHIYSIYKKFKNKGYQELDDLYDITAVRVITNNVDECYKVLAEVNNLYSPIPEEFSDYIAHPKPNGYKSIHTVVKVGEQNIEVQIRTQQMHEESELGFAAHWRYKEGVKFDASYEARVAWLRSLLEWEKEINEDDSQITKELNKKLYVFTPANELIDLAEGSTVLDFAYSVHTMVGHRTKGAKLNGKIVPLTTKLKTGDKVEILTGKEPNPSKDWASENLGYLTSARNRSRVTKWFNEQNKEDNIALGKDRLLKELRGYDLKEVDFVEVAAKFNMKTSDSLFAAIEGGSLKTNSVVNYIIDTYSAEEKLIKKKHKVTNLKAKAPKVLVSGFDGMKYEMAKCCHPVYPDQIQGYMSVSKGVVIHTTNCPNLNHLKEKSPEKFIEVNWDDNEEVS
smiles,measurement,value
Nc1nc2c(ncn2[C@@H]2O[C@H](COP(=O)(O)OP(=O)(O)O)[C@@H](OP(=O)(O)OP(=O)(O)O)[C@H]2O)c(=O)[nH]1 [ppGpp],EC50,60 ± 1.9 µM
